pEC50: −log10 of the molar value. Read-outs that look alike come from different tables or passages of the source.
Tests used:
Format in all cases: cell-based
[1] = molecular target: T1, hM5 (human Muscarinic receptor subtype 5) (Homo sapiens, UniProt P08912); test: Human M5 calcium mobilization FLIPR assay; settings: hM5 expressed in CHO cells, intracellular Ca2+ release, read-out: hM5 EC50
T1 construct: expressed in transfected cells; host or cells: CHO cells (Chinese hamster ovary cells, ATCC)
T1 sequence (P08912 1-532): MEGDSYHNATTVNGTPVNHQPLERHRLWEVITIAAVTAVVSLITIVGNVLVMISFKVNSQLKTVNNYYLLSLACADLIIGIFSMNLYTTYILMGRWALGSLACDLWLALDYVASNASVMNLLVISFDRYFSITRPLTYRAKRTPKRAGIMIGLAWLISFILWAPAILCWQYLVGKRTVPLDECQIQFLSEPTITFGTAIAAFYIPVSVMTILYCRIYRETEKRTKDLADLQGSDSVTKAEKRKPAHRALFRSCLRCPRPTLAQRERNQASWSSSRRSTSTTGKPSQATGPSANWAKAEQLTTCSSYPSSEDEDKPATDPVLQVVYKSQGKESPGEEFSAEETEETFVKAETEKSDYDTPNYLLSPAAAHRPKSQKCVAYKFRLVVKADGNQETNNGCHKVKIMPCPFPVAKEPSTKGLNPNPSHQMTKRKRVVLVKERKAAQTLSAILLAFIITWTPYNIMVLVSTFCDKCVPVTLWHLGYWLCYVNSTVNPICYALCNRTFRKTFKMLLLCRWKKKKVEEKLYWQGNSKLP
Method: (§1) Human M1, rat M1, human M3 and human M5 Calcium Mobilization FLIPR™ Assay
(§2) The compound activity in the present invention (EC50 or IC50) is measured using a 384 plate-based imaging assay that monitors drug induced intracellular Ca^2+ release in whole cells. Activation of hM1 (human Muscarinic receptor subtype 1, gene bank access NM_000738), rM1 (rat Muscarinic receptor subtype 1, gene bank access NM_080773), hM3 (human Muscarinic receptor subtype 3, gene bank access NM_000740NM_000740) and hM5 (human Muscarinic receptor subtype 5, gene bank access NM_0121258), receptors expressed in CHO cells (Chinese hamster ovary cells, ATCC) is quantified in a Molecular Devices FLIPR II™ instrument as an increase in fluorescent signal. Inhibition of hM3 and hM5 by compounds is determined by the decrease in fluorescent signal in response to 2 nM acetylcholine activation.
(§3) Prior to experiment, the cell culture medium is removed from the plates by inversion. […] Plates are incubated at 37° C. for 60 minutes prior to start the experiment. The incubation is terminated by washing the cells four times in assay buffer, leaving a residual 25 μl buffer per well. Cell plates are then transferred to the FLIPR, ready for compound additions.
(§4) The day of experiment, acetylcholine and compounds are diluted in assay buffer in three-fold concentration range (10 points serial dilution) for addition by FLIPR instrument. For all calcium assays, a baseline reading is taken for 10 seconds followed by the addition of 12.5 μl of compounds, resulting in a total well volume of 37.5 μl. Data is collected every second for 60 pictures and then every 6 seconds for 20 pictures prior to the addition of agonist. For hM3 and hM5, before agonist addition, a second baseline reading is taken for 10 seconds followed by the addition of 12.5 μl of agonist or buffer, producing a final volume of 50 μl. After agonist stimulation, the FLIPR continues to collect data every second for 60 pictures and then every 6 seconds for 20 pictures. The fluorescence emission is read using filter 1 (emission 510-570 nm) by the FLIPR on board CCD camera.
(§5) Calcium mobilization output data are calculated as the maximal relative fluorescence unit (RFU) minus the minimal value for both compound and agonist reading frame (except for hM1 and rM1 using only the maximal RFU). Data are analyzed using sigmoidal fits of a non-linear curve-fitting program (XLfit version 4.2.2 Excel add-in version 4.2.2 build 18 math 1Q version 2.1.2 build 18). All pEC50 and plC50 values are reported as arithmetic means ±standard error of mean of ‘n’ independent experiments.

[2] = molecular target: T2, hM1 (human Muscarinic receptor subtype 1) (Homo sapiens, UniProt P11229); test: Human M1 calcium mobilization FLIPR assay; settings: hM1 expressed in CHO cells, intracellular Ca2+ release; for pEC50: read-out: hM1 EC50
T2 construct: expressed in transfected cells; host or cells: CHO cells (Chinese hamster ovary cells, ATCC)
T2 sequence (P11229 1-460): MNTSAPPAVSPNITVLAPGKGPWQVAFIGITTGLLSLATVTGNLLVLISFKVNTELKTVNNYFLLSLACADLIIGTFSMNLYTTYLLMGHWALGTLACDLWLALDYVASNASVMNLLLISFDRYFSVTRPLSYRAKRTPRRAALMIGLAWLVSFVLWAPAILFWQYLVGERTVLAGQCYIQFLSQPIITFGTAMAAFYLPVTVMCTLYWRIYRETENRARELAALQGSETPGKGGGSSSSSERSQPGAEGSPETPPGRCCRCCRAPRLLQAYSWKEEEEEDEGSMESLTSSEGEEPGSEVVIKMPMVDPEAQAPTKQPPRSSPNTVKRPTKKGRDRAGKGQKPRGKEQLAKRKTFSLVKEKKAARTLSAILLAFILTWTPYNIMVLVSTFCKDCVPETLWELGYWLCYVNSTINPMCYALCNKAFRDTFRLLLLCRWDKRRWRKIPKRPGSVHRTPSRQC
Procedure, shortened: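 CHO cells expressing the receptor, dye-loaded at 37°C for 60 min, read on FLIPR at 510-570 nm. Agonism taken from compound-induced Ca2+ rise (max RFU for M1); M3/M5 inhibition measured against 2 nM acetylcholine using max minus min RFU. 10-point threefold dilutions, sigmoidal fits.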

[3] = molecular target: T3, hM3 (human Muscarinic receptor subtype 3) (Homo sapiens, UniProt P20309); test: Human M3 calcium mobilization FLIPR assay; settings: hM3 expressed in CHO cells, intracellular Ca2+ release, read-out: hM3 EC50
T3 construct: expressed in transfected cells; host or cells: CHO cells (Chinese hamster ovary cells, ATCC)
T3 sequence (P20309 whole entry): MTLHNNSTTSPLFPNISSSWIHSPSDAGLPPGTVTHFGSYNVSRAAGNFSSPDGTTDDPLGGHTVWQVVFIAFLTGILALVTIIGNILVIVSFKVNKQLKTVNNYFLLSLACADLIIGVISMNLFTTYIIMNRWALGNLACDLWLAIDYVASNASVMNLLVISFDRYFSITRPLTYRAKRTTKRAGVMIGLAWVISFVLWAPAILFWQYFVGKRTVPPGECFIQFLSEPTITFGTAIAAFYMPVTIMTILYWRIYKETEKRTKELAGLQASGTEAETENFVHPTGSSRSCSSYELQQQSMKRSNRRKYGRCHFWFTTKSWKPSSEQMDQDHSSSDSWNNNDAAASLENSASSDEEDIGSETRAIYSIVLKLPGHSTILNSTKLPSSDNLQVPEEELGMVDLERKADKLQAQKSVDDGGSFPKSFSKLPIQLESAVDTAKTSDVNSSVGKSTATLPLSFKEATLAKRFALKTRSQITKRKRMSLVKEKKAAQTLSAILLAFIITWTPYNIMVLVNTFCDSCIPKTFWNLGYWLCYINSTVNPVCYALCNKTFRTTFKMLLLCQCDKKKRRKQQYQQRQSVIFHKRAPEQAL
Method: as §1, §2, §3, §4, §5

Row | Compound | pEC50 [1] | pEC50 [2] | pEC50 [3] | EC50 ([2]; hM1 EC50 (nM)) [nM]
1 | CC1(N2CCC(n3c(=O)[nH]c4ccccc43)CC2)CCN(C(=O)OCCF)C1 (racemic) [Example 4, 2-fluoroethyl 3-methyl-3-(4-(2-oxo-2,3-dihydro-1H-benzo[d]imidazol-1-yl)piperidin-1-yl)pyrrolidine-1-carboxylate] | < 5.02 | 7.87 | < 4.40 | –
2 | CCOC(=O)N1CCC(C)(N2CCC(n3c(=O)[nH]c4cc(F)ccc43)CC2)C1 (single isomer, unassigned) [Example 7, ethyl 3-(4-(5-fluoro-2-oxo-2,3-dihydro-1H-benzo[d]imidazol-1-yl)piperidin-1-yl)-3-methylpyrrolidine-1-carboxylate] | 5.51 | > 8.18 | < 4.40 | –
3 | Cc1ccc2c(c1)[nH]c(=O)n2C1CCN(C2(C)CCN(C(=O)OC(C)C)C2)CC1 (single isomer, unassigned) [Example 15, isopropyl 3-methyl-3-(4-(5-methyl-2-oxo-2,3-dihydro-1H-benzo[d]imidazol-1-yl)piperidin-1-yl)pyrrolidine-1-carboxylate] | – | 7.02 | < 4.40 | –
4 | CC#CCOC(=O)N1CCC(C)(N2CCC(n3c(=O)[nH]c4ccc(C)cc43)CC2)C1 (single isomer, unassigned) [Example 20, but-2-ynyl 3-methyl-3-(4-(6-methyl-2-oxo-2,3-dihydro-1H-benzo[d]imidazol-1-yl)piperidin-1-yl)pyrrolidine-1-carboxylate] | 6.14 | 7.85 | 6.27 | –
5 | CC1(N2CCC(n3c(=O)[nH]c4cc(F)ccc43)CC2)CCN(C(=O)OCCF)C1 (single isomer, unassigned) [Example 24, 2-fluoroethyl 3-(4-(5-fluoro-2-oxo-2,3-dihydro-1H-benzo[d]imidazol-1-yl)piperidin-1-yl)-3-methylpyrrolidine-1-carboxylate] | 5.80 | 7.98 | < 4.58 | –
6 | Cc1ccc2[nH]c(=O)n(C3CCN(C4(C)CCN(C(=O)OCCF)C4)CC3)c2c1 (single isomer, unassigned) [Example 28, 2-fluoroethyl 3-methyl-3-(4-(6-methyl-2-oxo-2,3-dihydro-1H-benzo[d]imidazol-1-yl)piperidin-1-yl)pyrrolidine-1-carboxylate] | 5.58 | 8.00 | < 4.61 | –
7 | C#CCOC(=O)N1CCC(C)(N2CCC(n3c(=O)[nH]c4ccc(C)cc43)CC2)C1 (single isomer, unassigned) [Example 41, prop-2-ynyl 3-methyl-3-(4-(6-methyl-2-oxo-2,3-dihydro-1H-benzo[d]imidazol-1-yl)piperidin-1-yl)pyrrolidine-1-carboxylate] | < 4.40 | 7.63 | < 4.40 | –
8 | C#CCOC(=O)N1CCC(C)(N2CCC(n3c(=O)[nH]c4ccc(C)cc43)CC2)C1 (single isomer, unassigned) [Example 43, prop-2-ynyl 3-methyl-3-(4-(6-methyl-2-oxo-2,3-dihydro-1H-benzo[d]imidazol-1-yl)piperidin-1-yl)pyrrolidine-1-carboxylate] | 6.69 | 8.60 | 6.26 | –
9 | COC(=O)N1CCC(C)(N2CCC(n3c(=O)[nH]c4ccc(C)cc43)CC2)C1 (single isomer, unassigned) [Example 45, methyl 3-methyl-3-(4-(6-methyl-2-oxo-2,3-dihydro-1H-benzo[d]imidazol-1-yl)piperidin-1-yl)pyrrolidine-1-carboxylate] | 5.97 | 7.85 | < 4.40 | –
10 | COC(=O)N1CCC(C)(N2CCC(n3c(=O)[nH]c4cc(C)ccc43)CC2)C1 (single isomer, unassigned) [Example 48, methyl 3-methyl-3-(4-(5-methyl-2-oxo-2,3-dihydro-1H-benzo[d]imidazol-1-yl)piperidin-1-yl)pyrrolidine-1-carboxylate] | < 4.40 | 8.07 | < 4.40 | –
11 | CCOC(=O)N1CCC(C)(N2CCC(n3c(=O)[nH]c4ccc(F)cc43)CC2)C1 (single isomer, unassigned) [Example 49, ethyl 3-(4-(6-fluoro-2-oxo-2,3-dihydro-1H-benzo[d]imidazol-1-yl)piperidin-1-yl)-3-methylpyrrolidine-1-carboxylate] | < 5.21 | 7.82 | < 4.40 | –
12 | CCOC(=O)N1CCC(C)(N2CCC(n3c(=O)[nH]c4ccc(F)cc43)CC2)C1 (single isomer, unassigned) [Example 50, ethyl 3-(4-(6-fluoro-2-oxo-2,3-dihydro-1H-benzo[d]imidazol-1-yl)piperidin-1-yl)-3-methylpyrrolidine-1-carboxylate] | 5.45 | 8.66 | < 4.40 | –
13 | COC(=O)N1CCC(C)(N2CCC(N3C(=O)Cc4cc(F)c(C)cc43)CC2)C1 (single isomer, unassigned) [Example 84, methyl 3-(4-(5-fluoro-6-methyl-2-oxoindolin-1-yl)piperidin-1-yl)-3-methylpyrrolidine-1-carboxylate] | – | – | – | 7.7
14 | COC(=O)N1CCC(C)(N2CCC(n3c(=O)[nH]c4cc(F)ccc43)CC2)C1 (centres unmarked) [Example 8, methyl 3-(4-(5-fluoro-2-oxo-2,3-dihydro-1H-benzo[d]imidazol-1-yl)piperidin-1-yl)-3-methylpyrrolidine-1-carboxylate] | – | 7.74 | – | –
15 | C#CCOC(=O)N1CCC(C)(N2CCC(n3c(=O)[nH]c4cc(F)ccc43)CC2)C1 (centres unmarked) [Example 11, prop-2-ynyl 3-(4-(5-fluoro-2-oxo-2,3-dihydro-1H-benzo[d]imidazol-1-yl)piperidin-1-yl)-3-methylpyrrolidine-1-carboxylate] | – | 8.70 | 5.95 | –
16 | CCOC(=O)N1CCC(C)(N2CCC(n3c(=O)[nH]c4ccc(C)cc43)CC2)C1 (centres unmarked) [Example 16, ethyl 3-methyl-3-(4-(6-methyl-2-oxo-2,3-dihydro-1H-benzo[d]imidazol-1-yl)piperidin-1-yl)pyrrolidine-1-carboxylate] | – | 8.09 | – | –
17 | COC(=O)N1CCC(C)(N2CCC(n3c(=O)[nH]c4ccc(C)cc43)CC2)C1 (centres unmarked) [Example 17, methyl 3-methyl-3-(4-(6-methyl-2-oxo-2,3-dihydro-1H-benzo[d]imidazol-1-yl)piperidin-1-yl)pyrrolidine-1-carboxylate] | – | 8.01 | – | –

Reference: patent publication US20090221642A1, “MUSCARINIC RECEPTOR AGONISTS, COMPOSITIONS, METHODS OF TREATMENT THEREOF, AND PROCESSES FOR PREPARATION THEREOF-176” (AstraZeneca AB, priority 2008, published 2009)
